# Measurements from patent publication US9682976B2, “Protein kinase C inhibitors and uses thereof” (Rigel Pharmaceuticals, Inc., priority 2012, dated 2017).
# Tested on: PKC mediated IL-2 production
# Experiment: IL-2 ELISA, human primary T cell, anti CD3+CD28+
# Format: cell-based
# Conditions: human primary T cells stimulated with αCD3 and αCD28, 24 hours
# Outline: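 Human peripheral blood T cells, pre-expanded with αCD3/αCD28 and IL-2 and then washed free of IL-2, were pre-incubated with compound for 1 h at 37° C. They were then stimulated on plates coated with […] αCD3 and 5 μg/ml αCD28, or with 0.5 ng/ml PMA plus 0.1 uM ionomycin in the counter assay. IL-2 in supernatants was measured by ELISA after 24 h.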
Compound,"EC50 (Homo sapiens, T-cell, 24 h)",EC50
"CC1(C)C[C@H](Nc2nc(Nc3ccc(OCCO)c(-n4nnnc4C4CC4)c3)ncc2F)C[C@@H]2CCCN21 [Compound 129, 2-(2-(5-cyclopropyl-1H-tetrazol-1-yl)-4-((4-(((7R,8aS)-5,5-dimethyloctahydroindolizin-7-yl)amino)-5-fluoropyrimidin-2-yl)amino)phenoxy)ethan-1-ol]",< 100 nM,–
"CC1(C)C[C@H](Nc2nc(Nc3cccc(-n4nnnc4S(C)(=O)=O)c3)ncc2F)C[C@@H]2CCCN21 [Compound 269, 5-fluoro-N4-((7R,8aS)-octahydro-5,5-dimethylindolizin-7-yl)-N2-(3-(5-(methylsulfonyl)-1H-tetrazol-1-yl)phenyl)pyrimidine-2,4-diamine]",500 to 1000 nM,–
"Cn1nnn(-c2cc(Nc3ncc(F)c(N[C@H]4C[C@@H]5CC(F)(F)CN5C(C)(C)C4)n3)c(F)cc2C2CC2)c1=O [Compound 42, 1-(5-(4-((7S,8aR)-2,2-difluoro-octahydro-5,5-dimethylindolizin-7-ylamino)-5-fluoropyrimidin-2-ylamino)-2-cyclopropyl-4-fluorophenyl)-4-methyl-1H-tetrazol-5(4H)-one]",1000 to 10000 nM,–
CC1(C)C[C@H](Nc2nc(Nc3ccc(O[C@@H]4CCNC[C@H]4F)c(C(F)(F)F)c3)ncc2F)C[C@@H]2CCCN21 [Compound 119],< 100 nM,–
"CC1(C)Oc2ccc(Nc3ncc(F)c(N[C@H]4C[C@H]5CCCN5C(C)(C)C4)n3)cc2-n2nnnc21 [Compound 102, N2-(4,4-dimethyl-4H-benzo[b]tetrazolo[1,5-d][1,4]oxazin-8-yl)-N4-((7S,8aR)-5,5-dimethyloctahydroindolizin-7-yl)-5-fluoropyrimidine-2,4-diamine]",100 to 500 nM,–
"CC1(C)C[C@H](Nc2nc(Nc3ccc(OCC(O)CO)c(C#N)c3)ncc2F)C[C@@H]2CCCN21 (stereo partly drawn) [Compound 212, 2-(2,3-dihydroxypropoxy)-5-((4-(((7R,8aS)-5,5-dimethyloctahydroindolizin-7-yl)amino)-5-fluoropyrimidin-2-yl)amino)benzonitrile]",1000 to 10000 nM,–
"CC(C)N1CCC(Oc2ccc(Nc3ncc(F)c(N[C@H]4C[C@@H]5CCCN5C(C)(C)C4)n3)cc2OC(F)F)CC1 (single isomer, unassigned) [Compound 9, (R/S, S/R, R/R, S/S)-N^2-(4-(1-isopropylpiperidin-4-yloxy)-3-(difluoromethoxy)phenyl)-5-fluoro-N^4-(octahydro-5,5-dimethylindolizin-7-yl)pyrimidine-2,4-diamine]",–,100 to 500 nM
"Cn1nnn(-c2cc(Nc3ncc(F)c(N[C@@H]4C[C@@H]5CC(F)(F)CN5C(C)(C)C4)n3)c(F)cc2C2CC2)c1=O [Compound 45, 1-(5-(4-((7R,8aR)-2,2-difluoro-octahydro-5,5-dimethylindolizin-7-ylamino)-5-fluoropyrimidin-2-ylamino)-2-cyclopropyl-4-fluorophenyl)-4-methyl-1H-tetrazol-5(4H)-one]",1000 to 10000 nM,–
"CC1(C)CC(Nc2nc(Nc3ccc(O[C@@H]4CCOC4)c(C#N)c3)ncc2F)CC2CCCN21 (single isomer, unassigned) [Compound 58]",–,1000 to 10000 nM
"CC1(C)CC[C@H]2C[C@@H](Nc3nc(Nc4ccc(OC5COC5)c(OC(F)F)c4)ncc3F)CCN21 [Compound 298, N2-(3-(Difluoromethoxy)-4-(oxetan-3-yloxy)phenyl)-N4-((7S,8aS)-3,3-dimethyloctahydroindolizin-7-yl)-5-fluoropyrimidine-2,4-diamine]",100 to 500 nM,–
"Cn1nnn(-c2cc(Nc3ncc(F)c(N[C@@H]4C[C@@H]5CCCN5C(C)(C)C4)n3)c(F)cc2OC2CCOC2=O)c1=O (stereo partly drawn) [Compound 185, 1-(5-((4-(((7R,8aS)-5,5-dimethyloctahydroindolizin-7-yl)amino)-5-fluoropyrimidin-2-yl)amino)-4-fluoro-2-((2-oxotetrahydrofuran-3-yl)oxy)phenyl)-4-methyl-1,4-dihydro-5H-tetrazol-5-one]",> 10000 nM,–
"Cn1nnn(-c2cc(Nc3ncc(F)c(N[C@@H]4C[C@@H]5CCCN5C(C)(C)C4)n3)c(F)cc2CCO)c1=O [Compound 93, 1-(5-(4-((7R,8aS)-octahydro-5,5-dimethylindolizin-7-ylamino)-5-fluoropyrimidin-2-ylamino)-4-fluoro-2-(2-hydroxyethyl)phenyl)-4-methyl-1H-tetrazol-5(4H)-one]",100 to 500 nM,–
"CC1(C)C[C@H](Nc2nc(Nc3ccc(OCC4CCO4)c(C#N)c3)ncc2F)C[C@@H]2CCCN21 (stereo partly drawn) [Compound 176, 5-(4-((7R,8aS)-5,5-dimethyloctahydroindolizin-7-ylamino)-5-fluoropyrimidin-2-ylamino)-2-(oxetan-2-ylmethoxy)benzonitrile]",100 to 500 nM,–
"CC1(C)C[C@H](Nc2nc(Nc3ccc(O)c(C#N)c3)ncc2F)C[C@@H]2CCCN21 [Compound 168, 5-((4-(((7R,8aS)-5,5-dimethyloctahydroindolizin-7-yl)amino)-5-fluoropyrimidin-2-yl)amino)-2-hydroxybenzonitrile]",1000 to 10000 nM,–
"Cn1nnn(-c2cc(Nc3ncc(F)c(N[C@@H]4C[C@@H]5CCCN5C(C)(C)C4)n3)c(F)cc2C#N)c1=O [Compound 98, 4-(4-((7R,8aS)-octahydro-5,5-dimethylindolizin-7-ylamino)-5-fluoropyrimidin-2-ylamino)-5-fluoro-2-(4,5-dihydro-4-methyl-5-oxotetrazol-1-yl)benzonitrile]",100 to 500 nM,–
"CN(C)CCOc1cc(F)c(N(CCN(C)C)c2ncc(F)c(N[C@@H]3C[C@@H]4CCCN4C(C)(C)C3)n2)cc1-n1nnn(C)c1=O [Compound 193, 1-(2-(2-(dimethylamino)ethoxy)-5-((2-(dimethylamino)ethyl)(4-(((7R,8aS)-5,5-dimethyloctahydroindolizin-7-yl)amino)-5-fluoropyrimidin-2-yl)amino)-4-fluorophenyl)-4-methyl-1,4-dihydro-5H-tetrazol-5-one]",100 to 500 nM,–
"CO[C@@H](C)COc1cc(F)c(Nc2ncc(F)c(N[C@@H]3C[C@@H]4CCCN4C(C)(C)C3)n2)cc1-n1nnn(C)c1=O [Compound 233, 1-(5-((4-(((7R,8aS)-5,5-dimethyloctahydroindolizin-7-yl)amino)-5-fluoropyrimidin-2-yl)amino)-4-fluoro-2-((S)-2-methoxypropoxy)phenyl)-4-methyl-1,4-dihydro-5H-tetrazol-5-one]",100 to 500 nM,–
"CCN(CC)CCOc1cc(F)c(Nc2ncc(F)c(N[C@@H]3C[C@@H]4CCCN4C(C)(C)C3)n2)cc1-n1nnn(C)c1=O [Compound 194, 1-(2-(2-(diethylamino)ethoxy)-5-((4-(((7R,8aS)-5,5-dimethyloctahydroindolizin-7-yl)amino)-5-fluoropyrimidin-2-yl)amino)-4-fluorophenyl)-4-methyl-1,4-dihydro-5H-tetrazol-5-one]",100 to 500 nM,–
"[2H]C1(Oc2ccc(Nc3ncc(F)c(N[C@H]4CCN5[C@@H](CCC5(C)C)C4)n3)cc2Cl)CC(O)C1 (stereo partly drawn) [Compound 313, 3-(2-Chloro-4-((4-(((7S,8aS)-3,3-dimethyloctahydroindolizin-7-yl)amino)-5-fluoropyrimidin-2-yl)amino)phenoxy)cyclobutan-3-d-1-ol]",100 to 500 nM,–
"CC1(C)C[C@H](Nc2nc(Nc3cc(-n4cnnn4)c(C4CC4)cc3F)ncc2F)C[C@@H]2CCCN21 (racemic) [Compound 53, (±)-N^2-(4-cyclopropyl-2-fluoro-5-(1H-tetrazol-1-yl)phenyl)-5-fluoro-n^4-(octahydro-5,5-dimethylindolizin-7-yl)pyrimidine-2,4-diamine]",< 100 nM,–
